# Like-named read-outs stand apart in the source and are kept apart here.
# What was measured:
# [1] = molecular target: T1, full-length beta-Catenin (Uniprot ID P35222) (Homo sapiens, UniProt P35222); test: Fluorescence polarization IC50 (beta-catenin / 5FAM-TCF4 10-53 competition); assay type: binding
# T1 construct: 10 nM full-length beta-Catenin (Uniprot ID P35222)
# T1 sequence (P35222 1-781): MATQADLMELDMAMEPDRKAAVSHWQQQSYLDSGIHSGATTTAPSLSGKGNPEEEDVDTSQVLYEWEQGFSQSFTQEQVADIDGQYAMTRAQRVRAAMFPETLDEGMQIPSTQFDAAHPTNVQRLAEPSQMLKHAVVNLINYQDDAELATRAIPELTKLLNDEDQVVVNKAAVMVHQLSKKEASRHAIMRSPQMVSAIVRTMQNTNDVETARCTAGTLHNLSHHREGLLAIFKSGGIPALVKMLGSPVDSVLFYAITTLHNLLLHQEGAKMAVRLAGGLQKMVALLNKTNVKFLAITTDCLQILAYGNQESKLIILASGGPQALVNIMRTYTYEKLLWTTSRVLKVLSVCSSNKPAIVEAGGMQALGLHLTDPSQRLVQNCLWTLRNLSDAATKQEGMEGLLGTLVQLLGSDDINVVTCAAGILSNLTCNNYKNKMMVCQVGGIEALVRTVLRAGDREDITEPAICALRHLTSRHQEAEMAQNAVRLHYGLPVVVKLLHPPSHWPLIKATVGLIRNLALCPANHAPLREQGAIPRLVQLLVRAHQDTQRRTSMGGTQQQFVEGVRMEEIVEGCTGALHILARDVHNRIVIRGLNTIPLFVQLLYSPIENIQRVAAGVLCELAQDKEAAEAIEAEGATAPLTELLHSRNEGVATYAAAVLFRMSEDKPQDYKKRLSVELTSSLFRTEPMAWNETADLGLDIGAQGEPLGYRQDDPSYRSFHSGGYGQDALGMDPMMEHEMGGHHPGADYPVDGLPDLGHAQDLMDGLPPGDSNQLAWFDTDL
# CHI Log D procedure = assay type: physicochemical
# Solubility in PBS = assay type: physicochemical
# Procedure, shortened: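 HPLC quantitation of peptide remaining in the PBS supernatant after ultracentrifugation, referenced to a 50 μM solution in DMSO.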
# [2] = fluorescence polarization, beta-catenin, read-out: FP EC50
# [3] = FP EC50 (nM), fluorescence polarization, beta-catenin
Structure (SMILES),IC50 ([1]; read-out: beta-Catenin FP IC50) [nM],"chromatographic logD (CHI Log D procedure; pH 7.4, CHI Log D)",Solubility (Solubility in PBS) [µM],IC50 ([1]; read-out: FP EC50) [nM],Solubility (Solubility in PBS; Solubility (uM)) [µM],"IC50 [1, 2] [nM]",CHI Log D (CHI Log D procedure; pH 7.4),"IC50 [1, 3] [nM]",chromatographic logD (CHI Log D procedure; pH 7.4)
"CC(=O)N1CCC[C@]12CC=CCCCC1(CCCC=CCCCOC(=O)N3CC[C@@](C(=O)N[C@@H](Cc4ccc5ccccc5c4)C(=O)N[C@@H](Cc4csc5ccccc45)C(=O)N[C@@H](Cc4c[nH]cn4)C(N)=O)(C3)NC(=O)[C@H](CC(N)=O)NC(=O)[C@H](Cc3ccccc3)NC(=O)[C@H](C)NC(=O)[C@H](C)NC(=O)[C@H](CC(=O)O)NC(=O)[C@H](CC(=O)O)NC1=O)NC(=O)[C@H](CC(C)(C)C)NC(=O)[C@H](CC(=O)O)NC2=O (stereo partly drawn) [I-795, Ac-PL3-Asp-Npg-B5-Asp-Asp-Ala-Ala-Phe-Asn-PyrS2-2NapA-BztA-His-NH2]",176,2.39,10,–,–,–,–,–,–
"CC(=O)N1CCC[C@]12CC=CCCCC1(CCCC=CCCCOC(=O)N3CC[C@@](C(=O)N[C@@H](Cc4ccsc4)C(=O)N[C@@H](Cc4csc5ccccc45)C(=O)N[C@@H](Cc4c[nH]cn4)C(N)=O)(C3)NC(=O)[C@H](CC(N)=O)NC(=O)[C@H](CC(=O)O)NC(=O)[C@H](C)NC(=O)[C@H](C)NC(=O)[C@H](CC(=O)O)NC(=O)[C@H](CC(=O)O)NC1=O)NC(=O)[C@H](CC(C)(C)C)NC(=O)[C@H](Cc1ccccc1)NC2=O (stereo partly drawn) [I-796, Ac-PL3-Phe-Npg-B5-Asp-Asp-Ala-Ala-Asp-Asn-PyrS2-3Thi-BztA-His-NH2]",–,2.45,–,8140,35,–,–,–,–
"CC(=O)N1CCC[C@]12CC=CCCCC1(CCCC=CCCCOC(=O)N3CC[C@@](C(=O)N[C@@H](Cc4ccsc4)C(=O)N[C@@H](Cc4csc5ccccc45)C(=O)N[C@@H](CCC(N)=O)C(N)=O)(C3)NC(=O)[C@H](CC(N)=O)NC(=O)[C@H](Cc3cscn3)NC(=O)[C@H](C)NC(=O)[C@H](C)NC(=O)[C@H](CC(=O)O)NC(=O)[C@H](CC(=O)O)NC1=O)NC(=O)[C@H](CC(C)(C)C)NC(=O)[C@H](CC(=O)O)NC2=O (stereo partly drawn) [I-812, Ac-PL3-Asp-Npg-B5-Asp-Asp-Ala-Ala-4Thz-Asn-PyrS2-3Thi-BztA-Gln-NH2]",33,1.9,–,–,47,–,–,–,–
"CC(=O)N1CCC[C@]12CC=CCCCC1(CCCC=CCCCCOC(=O)N3CC[C@@](C(=O)N[C@@H](Cc4ccsc4)C(=O)N[C@@H](Cc4csc5ccccc45)C(=O)N[C@@H](Cc4c[nH]cn4)C(=O)N[C@@H](C)C(N)=O)(C3)NC(=O)[C@H](CC(N)=O)NC(=O)[C@H](Cc3ccccc3)NC(=O)[C@H](C)NC(=O)[C@H](C)NC(=O)[C@H](CC(=O)O)NC(=O)[C@H](CC(=O)O)NC1=O)NC(=O)[C@H](CC(C)(C)C)NC(=O)[C@H](CC(=O)O)NC2=O (stereo partly drawn) [I-828, Ac-PL3-Asp-Npg-B5-Asp-Asp-Ala-Ala-Phe-Asn-PyrS3-3Thi-BztA-His-Ala-NH2]",13,–,40,–,–,13,2.137,–,–
"CC(=O)N1CCC[C@]12CC=CCCCC1(CCCC=CCCCOC(=O)N3CC[C@@](C(=O)N[C@@H](Cc4ccsc4)C(=O)N[C@@H](Cc4csc5ccccc45)C(=O)N[C@@H](Cc4c[nH]cn4)C(N)=O)(C3)NC(=O)[C@H](CC(N)=O)NC(=O)[C@H](Cc3ccccc3)NC(=O)[C@H](C)NC(=O)[C@H](C)NC(=O)[C@H](Cc3ccc(O)cc3)NC(=O)[C@H](CC(=O)O)NC1=O)NC(=O)[C@H](CC(C)(C)C)NC(=O)[C@H](CC(=O)O)NC2=O (stereo partly drawn) [I-843, Ac-PL3-Asp-Npg-B5-Asp-Tyr-Ala-Ala-Phe-Asn-PyrS2-3Thi-BztA-His-NH2]",154,2.49,10,–,–,–,–,–,–
"CC(=O)N1CCC[C@]12CC=CCCCC1(CCCC=CCCCOC(=O)N3CC[C@@](C(=O)N[C@@H](Cc4ccsc4)C(=O)N[C@@H](Cc4csc5ccccc45)C(=O)N[C@@H](Cc4c[nH]cn4)C(N)=O)(C3)NC(=O)[C@H](CC(N)=O)NC(=O)[C@H](Cc3ccccc3)NC(=O)[C@H](C)NC(=O)[C@H](C)NC(=O)[C@H]([C@@H](C)O)NC(=O)[C@H](CC(=O)O)NC1=O)NC(=O)[C@H](CC(C)(C)C)NC(=O)[C@H](CC(=O)O)NC2=O (stereo partly drawn) [I-845, Ac-PL3-Asp-Npg-B5-Asp-Thr-Ala-Ala-Phe-Asn-PyrS2-3Thi-BztA-His-NH2]",7,2.42,10,–,–,–,–,–,–
"CC(=O)N1CCC[C@]12CC=CCCCC1(CCCC=CCCCOC(=O)N3CC[C@@](C(=O)N[C@@H](Cc4ccsc4)C(=O)N[C@@H](Cc4csc5ccccc45)C(N)=O)(C3)NC(=O)[C@H](CC(N)=O)NC(=O)[C@H](Cc3ccccc3)NC(=O)[C@H](C)NC(=O)[C@H](C)NC(=O)[C@H]([C@@H](C)O)NC(=O)[C@H](CC(=O)O)NC1=O)NC(=O)[C@H](CC(C)(C)C)NC(=O)[C@H](CC(=O)O)NC2=O (stereo partly drawn) [I-860, Ac-PL3-Asp-Npg-B5-Asp-Thr-Ala-Ala-Phe-Asn-PyrS2-3Thi-BztA-NH2]",61,–,10,–,–,61,2.722,–,–
"CC(=O)N1CCC[C@]12CC=CCCCC1(CCCC=CCCCOC(=O)N3CC[C@@](C(=O)N[C@@H](Cc4ccsc4)C(=O)N[C@@H](Cc4csc5ccccc45)C(N)=O)(C3)NC(=O)[C@H](CC(N)=O)NC(=O)[C@H](Cc3ccccc3)NC(=O)[C@H](C)NC(=O)[C@H](C)NC(=O)[C@H](CCCNC(N)=O)NC(=O)[C@H](CC(=O)O)NC1=O)NC(=O)[C@H](CC(C)(C)C)NC(=O)[C@H](CC(=O)O)NC2=O (stereo partly drawn) [I-861, Ac-PL3-Asp-Npg-B5-Asp-Cit-Ala-Ala-Phe-Asn-PyrS2-3Thi-BztA-NH2]",40,2.55,–,–,20,–,–,–,–
"CC(=O)N1CCC[C@]12CC=CCCCC1(CCCC=CCCCOC(=O)N3CC[C@@](C(=O)N[C@@H](Cc4ccsc4)C(=O)N[C@@H](Cc4csc5ccccc45)C(N)=O)(C3)NC(=O)[C@H](CC(N)=O)NC(=O)[C@H](Cc3ccccc3)NC(=O)[C@H](C)NC(=O)[C@H](C)NC(=O)[C@H](CC(C)C)NC(=O)[C@H](CC(=O)O)NC1=O)NC(=O)[C@H](CC(C)(C)C)NC(=O)[C@H](CC(=O)O)NC2=O (stereo partly drawn) [I-862, Ac-PL3-Asp-Npg-B5-Asp-Leu-Ala-Ala-Phe-Asn-PyrS2-3Thi-BztA-NH2]",123,2.85,10,–,–,–,–,–,–
"CC(=O)N1CCC[C@]12CC=CCCCC1(CCCC=CCCCOC(=O)N3CC[C@@](C(=O)N[C@@H](Cc4ccsc4)C(=O)N[C@@H](Cc4csc5ccccc45)C(=O)N[C@@H](CCCCNC(=O)CN=[N+]=[N-])C(N)=O)(C3)NC(=O)[C@H](CC(N)=O)NC(=O)[C@H](Cc3ccccc3)NC(=O)[C@H](C)NC(=O)[C@H](C)NC(=O)[C@H](CC(=O)O)NC(=O)[C@H](CC(=O)O)NC1=O)NC(=O)[C@H](CC(C)(C)C)NC(=O)[C@H](CC(=O)O)NC2=O (stereo partly drawn) [I-878, Ac-PL3-Asp-Npg-B5-Asp-Asp-Ala-Ala-Phe-Asn-PyrS2-3Thi-BztA-[AzAc]Lys-NH2]",–,–,46,–,–,–,–,6,2.09
"CC(=O)N1CCC[C@]12CC=CCCCC1(CCCC=CCCCOC(=O)N3CC[C@@](C(=O)N[C@@H](Cc4ccsc4)C(=O)N[C@@H](Cc4csc5ccccc45)C(=O)N[C@@H](CCC(N)=O)C(N)=O)(C3)NC(=O)[C@H](CC(N)=O)NC(=O)[C@H](Cc3ccccc3)NC(=O)[C@H](C)NC(=O)[C@H](CCCCNC(=O)CN=[N+]=[N-])NC(=O)[C@H](CC(=O)O)NC(=O)[C@H](CC(=O)O)NC1=O)NC(=O)[C@H](CC(C)(C)C)NC(=O)[C@H](CC(=O)O)NC2=O (stereo partly drawn) [I-879, Ac-PL3-Asp-Npg-B5-Asp-Asp-[AzAc]Lys-Ala-Phe-Asn-PyrS2-3Thi-BztA-Gln-NH2]",–,–,45,–,–,–,–,6,2
"CC(=O)N1CCC[C@]12CC=CCCCC1(CCCC=CCCCOC(=O)N3CC[C@@](C(=O)N[C@@H](Cc4ccsc4)C(=O)N[C@@H](Cc4csc5ccccc45)C(=O)N[C@@H](CCC(N)=O)C(N)=O)(C3)NC(=O)[C@H](CC(N)=O)NC(=O)[C@H](Cc3ccccc3)NC(=O)[C@H](C)NC(=O)[C@H](C)NC(=O)[C@H](CC(=O)O)NC(=O)[C@H](CC(=O)O)NC1=O)NC(=O)[C@H](CCCCNC(=O)CN=[N+]=[N-])NC(=O)[C@H](CC(=O)O)NC2=O (stereo partly drawn) [I-880, Ac-PL3-Asp-[AzAc]Lys-B5-Asp-Asp-Ala-Ala-Phe-Asn-PyrS2-3Thi-BztA-Gln-NH2]",–,–,42,–,–,–,–,6,1.72

# — US20240116985A1, “STAPLED PEPTIDES AND METHODS THEREOF” (priority 2020, published 2024)
